# US20120058133A1, “INHIBITION OF TRNA SYNTHETASES AND THERAPEUTIC APPLICATIONS THEREOF” (President and Fellows of Harvard College, priority 2009, published 2012)
# “Also recorded” adds a separate entry of the source.
# Legend:
# [1] = tested on: Smad2 phosphorylation; test: TGFβ-stimulated Smad2 phosphorylation in fibroblasts; format: cell-based, mouse
# Method: FIG. 30. Proline addition to fibroblasts rescues HF-inhibition of TGFβ Signaling. MEFs were treated with HF for 12 hours in the presence or absence of 2 mM proline, treated with 2 ng/mL TGFβ for 1 hour, and assayed for total Smad2 or pSmad2 by Western blot. Total and pSmad2 levels were quantitated using Image J software (bottom panel). Data are representative of three separate experiments.
# FIG. 31. HF Dose response for pGCN2-induction and pSmad2-inhibition. Fibroblasts were treated for 12 hours with the indicated dose of HF and analyzed for Smad2 or GCN2 phosphorylation by Western blot. Data are representative of three separate experiments.
# FIG. 32. pSmad2 inhibition by HF develops slowly over time. Fibroblasts were treated for the indicated time with 20 nM HF, then treated for 1 hr with 2 ng/mL TGFβ and analyzed for phosphorylation of Smad2 or GCN2 by Western blot. Data are representative of three separate experiments. Bottom panel: Western data in top panel were quantitated using Image J software.
# [2] = tested on: STAT3 phosphorylation; test: STAT3 phosphorylation in developing Th17 cells; format: cell-based, mouse
# Method: FIG. 3. […] FIG. 3A is a set of representative histograms displaying the kinetics of STAT3 phosphorylation in developing Th17 cells treated with or without HF. Resting naïve T cells (grey, shaded peak), T cells activated in the presence of TGFβ plus IL-6 (TGFβ/IL-6) treated with 10 nM MAZ1310 (light gray trace), 5 nM HF (medium gray trace), or 10 nM HF (dark gray trace). T cells were fixed at the indicated times and intracellular phospho-STAT3 staining was performed.
# FIG. 3B depicts western blot analysis of CD4^+ CD25^− T cells treated with 10 nM HF or 10 nM MAZ1310 and activated in the presence or absence of TGFβ plus IL-6. Whole cell lysates were generated at the indicated times following activation.
# All cell surface staining was performed in FACS buffer (PBS/2% FBS/0.1% NaN3) and antibodies were incubated with cells on ice for 20-30 minutes. Cells were washed with FACS buffer and fixed with FACS buffer plus 1% paraformaldehyde prior to data acquisition. For phospho-STAT3 intracellular staining, stimulated T cells cultured with or without TGFβ plus IL-6 for the indicated times were harvested on ice and fixed in PBS plus 2% paraformaldehyde for 10 minutes at 37° C. Fixed cells were washed twice with staining buffer (PBS/1% BSA/0.1% NaN3) and then permeabilized with perm buffer III (BD Pharmingen) on ice for 30 minutes. Cells were then washed twice with staining buffer and PE-conjugated anti-STAT3 (pY705) (BD Pharmingen) was added per the manufacturer's instructions and incubated with cells at room temperature for 45-60 minutes. Cells were then washed and stored in staining buffer prior to data acquisition. Foxp3 intracellular staining was performed using a Foxp3 intracellular staining kit (eBioscience—San Diego, Calif.) in accordance with the manufacturer's instructions. […] All FACS data was acquired on a FACSCalibur flow cytometer (BD Pharmingen) and analyzed using FlowJo software (Treestar, Inc.—Ashland, Oreg.). […]
# [3] = tested on: adjuvant-driven EAE in wild-type B6 mice; test: Adjuvant-driven EAE (MOG33-55 immunization); format: in vivo, mouse
# Description: The ability of systemic HF treatment to block IL-17 expression and associated autoimmune inflammation in vivo was examined using two distinct models of experimental autoimmune encephalomyelitis (EAE). […] The second model, a passive model of EAE induction, is initiated by the transfer of myelin proteolipid protein (PLP)-reactive T cells into lymphopenic hosts.
# Adjuvant-driven EAE was induced in 8 week-old wild-type B6 mice purchased from Charles River laboratories (Kingston, N.Y.) by subcutaneous injection of […] peptide emulsified in Incomplete Freund's Adjuvant (IFA) plus 5 mg/ml heat-killed M. tuburculosis (BD Biosciences) in both dorsal flanks as described in Veldhoen et al. (Nat. Immunol. 7(11):1151-1156, 2006).
# Mice were injected daily with HF (2 μg/mouse) or vehicle control (DMSO) i.p. Clinical signs of EAE were assessed according to the following score: 0, no signs of disease; 1, flaccid tail; 2, weak gait/hind limb paresis; 3, hind limb paralysis; 4, tetraplegia; 5, moribund. Cytokine production during EAE was determined either in peripheral T cells isolated from spleen or lymph nodes of mice prior to disease onset (day 6-10) or in mononuclear cells isolated from the brain and spinal cords of mice with severe disease (clinical score ≧2) between days 15-20. Briefly, splenocytes were stained for intracellular cytokines following erythrocyte lysis with ammonium chloride buffer. T cells were isolated from brain and spinal cords of mice with active EAE following perfusion with cold PBS. Minced CNS tissue was digested with liberase C1 (0.33 mg/ml, Roche Diagnostics) or collagenase D (10 mg/ml, Roche Diagnostics) at 37° C. for 30-45 minutes. Cell suspensions were passed through 70 μm cell strainers (VWR) and fractionated by 70%/30% Percoll gradient centrifugation. Mononuclear cells were collected from the interphase, washed and used for intracellular cytokine analysis.
# [4] = 2 μg HF daily, ˜0.1 mg/kg, i.p.
smiles,measurement,setting,value
"O=C(CC1NCCCC1O)Cn1cnc2cc(Br)c(Cl)cc2c1=O (racemic) [HF, halofuginone]",time course of Smad2 inhibition versus GCN2 phosphorylation,[1]; 20 nM HF,much slower
same,reversal of Smad2 phosphorylation inhibition by proline,[1]; 2 mM proline,reversed by the addition of proline
same,TGF-beta-stimulated Smad2 phosphorylation,"[1]; 12 hours HF, same dose range as GCN2 phosphorylation",reduced TGF-beta-stimulated Smad2 phosphorylation
same,time post activation at which STAT3 phosphorylation begins to decrease,[2],around 12 hours
same,STAT3 activation during the first 6 hours of Th17 differentiation,[2]; 5-10 nM HF,did not interfere with STAT3 activation
same,maintenance of STAT3 phosphorylation,[2]; 5-10 nM HF,decreased the maintenance of STAT3 phosphorylation
same,CD4+ T cell infiltrates into the CNS,[3]; 2 μg HF daily i.p.,overall reduction
same,IFNγ expression in the same T cell populations,[3]; 2 μg HF daily i.p.,did not affect IFNγ expression; also recorded: had no effect on the number of IFNγ T-cells
same,T cell-derived IL-17 expression in lymph nodes and CNS tissue,[3]; 2 μg HF daily i.p.,reduction; also recorded: selectively reduced the number of IL-17 expressing T cells
same,frequency of disease onset,[3]; [4],significantly reduced
same,severity of adjuvant-driven EAE disease,[3]; [4],significantly reduced
same,clinical score of mice analysed,[3]; 17 days after immunization with MOG,0
same,clinical score of mice analysed,[3]; day 18,0
